{"source": "patent US8586043B2", "about": "“Methods for treating breast cancer with inhibitors of neurotensin activation of NTSR1” (INSERM ( Institut National de la Sante et de la Recherche …, priority 2009, dated 2013)", "system": "NTS gene", "assay": "NTS transcript RT-PCR in HBEC after hormonal treatment", "assay_type": "cell-based, human", "conditions": "1 μM ICI 182780 added concomitantly to 10 nM estradiol, 48 h", "method": "A) Left, one μg of total RNA from HBEC or whole gland were reverse-transcribed and a PCR experiment specific for NTS was performed. Right, one μg of total RNA from HBEC cells (control, treated with 10 nM estradiol (E2) with or without 1 μM ICI 182780) was reverse-transcribed. A PCR experiment was performed using specific primers for NTS and GAPDH.\nThe protocols for total RNA extraction, reverse-transcription reaction (RT), and PCR are documented in Souaze et al (Souaze F, Rostene W, Forgez P (1997) J. Biol. Chem. 272:10087-10094). RT was performed on 1 μg of total RNA using a specific NTSR1 primer (5′-[…]-3′ SEQ ID NO:3) or 50 pmol of oligo dT and oligo dN. The PCR amplification was performed on a 1:5 v/v of the RT reaction using 25 pmol of each primer 5′-[…]-3′ SEQ ID NO:4 and 5′-[…]-3′ SEQ ID NO:5 for NTSR1, and 5′-[…]-3′ SEQ ID NO:6 and 5′-[…]-3′ SEQ ID NO:7 for NTS, and 1 unit of Taq polymerase (Applied Biosystems, Courtaboeuf, France). The amplification profile consisted of denaturation at 94° C. for 30 s, annealing at 57° C. for 45 s, and extension at 72° C. for 45 s. The PCR cycle were preceded by denaturation at 95° C. for 15 min and were followed by a final extension at 72° C. for 7 min.\nHBEC were synchronized for 40 h in Ham F10 phenol red free medium containing 20 μM lovastatin. Synchronization was stopped by adding 2 mM mevalonate to the hormone-containing medium. […]", "data": [{"compound": "C[C@]12CC[C@@H]3c4ccc(O)cc4C[C@@H](CCCCCCCCC[S+]([O-])CCCC(F)(F)C(F)(F)F)[C@H]3[C@@H]1CC[C@@H]2O", "note": "(stereo partly shown) [ICI 182780]", "values": [{"measurement": "effect on the estradiol-induced enhancement of NTS transcripts", "result": "abolished"}]}]}
